Assays:
[1] = test system: GBP2+ reactive astrocytes; assay: Lipopolysaccharide (LPS) model of neuroinflammation, GBP2+ reactive astrocytes in brain; assay type: in vivo, mouse
Protocol: After which, brain tissue was collected from the mice and processed for in situ hybridization with probes targeting GFAP as a general astrocyte marker, and the reactive astrocyte-specific marker GBP2.
For in vivo studies in situ hybridization was performed using RNAscope Multiplex Fluorescent V2 Assay (ACD Bio, 323136) according to manufacturer's instructions for fixed frozen samples. Briefly, tissue was prepared by first dehydrating with increasingly higher percentages of ethanol, then dried, blocked with hydrogen peroxide, followed by antigen retrieval for 5 minutes, dried again, and then protein was digested using provided Protease III. RNA targeting probes purchased from ACD Bio were then annealed at 40° C. for 2 hrs, followed by washing and a series of amplification steps before finally tagging the RNA with Opal Dye fluorophores (Perkin Elmer). In situ hybridization Images were captured on a Hamamatsu Nanozoomer S60 Slide scanner with NDP 2.0 software. Image analysis was performed using Perkin Elmer Columbus automated software.

[2] = test system: MHC Class I (H-2Kb) bound to OVA257-264 on reactive astrocytes; assay: OVA257-264 peptide antigen cross presentation assay; assay type: cell-based, mouse
Protocol: To test whether HDAC inhibitors block the ability of reactive astrocytes to cross present exogenous antigen, cells were plated down in 96-well plates at a density of about 500 cells/mm^2. Cells were then treated with HDAC inhibitors for 1 hr prior to the addition of reactive astrocyte driving factors as the concentrations stated above. Cells were incubated for 24 hrs, after which, media was washed out and replaced with media containing the peptide fragment ovalbumin 257-264 (OVA257-264). Cells were then incubated overnight, and then stained for 2 hrs at 37° C. with APC-conjugated antibody against MHC Class I (H-2Kb) bound to OVA257-264, then visualized. The percent of H-2Kb positive cells as a percent of total live cells was determined (FIG. 3).
After 24 hours of treatment, these cells were cultured in the presence of the OVA257264 Peptide (GenScript RP10611 or Sigma S7951). After 12 hours, the cells were live-stained for two hours using a conjugated antibody targeted against an OVA257-264 peptide antigen. The cells were then fixed and imaged using the PerkinElmer Operetta CLS High-Content Analysis System.

spinal cord LPC lesion = assay: Lysolecithin (LPC) injection model of focal tissue damage; assay type: in vivo, mouse
Protocol: This was based on a toxin-based model of CNS tissue damage, where lysolecithin (lysophosphatidylcholine (LPC)) is injected into the dorsal column of the spinal cord leading to cell death, demyelination, and axonal damage at 4 days post lesion (dpl).
Focal tissue damage in the spinal cord was induced by the injection of 1% LPC solution. 10-12 week old C57BL/6 female mice were anesthetized using isoflurane and a T10 laminectomy was performed. 1 μL of 1% LPC was infused into the dorsal column at a rate of […]. The animals were euthanized at day twelve after the laminectomy (n=6-9 per group). […] Mice were then processed for immunohistochemistry or electron microscopy.
Samples were processed as previously described (Najm et al., Nat Methods 8, 957-962, doi:10.1038/nmeth.1712 (2011)). Briefly, Mice were perfused with 4% PFA, 2% glutaraldehyde, and 0.1 M sodium cacodylate. Spinal cords were extracted and samples were osmicated, stained en bloc with uranyl acetate and embedded in EMbed 812, an Epon-812 substitute (EMS). Thin sections were cut, carbon-coated and imaged either on JEOL JEM-1200-EX electron microscope or a T12 electron microscope (FEI).

other HDAC = conditions: at up to 15 μM; cited from earlier work
[3] = test system: retinal ganglion cells (RGCs); assay: Optic nerve crush model of neurodegeneration; assay type: in vivo, mouse; conditions: 10 mg/kg daily i.p. for 14 days after optic nerve crush
Excerpt: The optic nerve of adult mice was surgically accessed and crushed. […] 14 days after optic nerve crush surgery, retina were harvested and stained for the RGC marker BRN3A, and the pan neuronal maker BIII-tubulin.

[4] = test system: NF-κB (RelA/P65) transcriptional activity; assay: NF-κB Jurkat reporter assay; assay type: cell-based
Excerpt: NF-κB luciferase reporter Jurkat T-cells were used to measure NF-κB transcriptional activity in response to reactive astrocyte driving cytokines with or HDAC inhibitors and other validated hits from the primary screen. NFκB luciferase reporter Jurkat T-Cells (BPS Biosciences 60651) were purchased from BPS Bioscience. Within this cell line, the firefly luciferase gene is controlled by four copies of an NF-κB response element located upstream of the TATA promoter. Following activation by an external stimulant, endogenous NF-κB transcription factors bound to the DNA response elements to induce transcription of the luciferase gene.

CCL5 = CCL5 secretion by reactive astrocytes (ELISA); assay type: cell-based, mouse; conditions: for reduction of CCL5 secretion: compared to vehicle control
Protocol: Astrocytes were plated and treated exactly as described for the antigen cross presentation assay. However, after 24 hrs of incubation with either reactive astrocyte driving factors alone or with HDAC inhibitor treatment, conditioned media from the cells was collected and assayed for CCL5 using a commercially available colorimetric ELISA kit (RnD Cat #: DY478-05). Data was then fit to a standard four parameter logistic (4PL) curve and presented as pg/mL/cell, normalized to reactive astrocytes plus DMSO vehicle (FIG. 4).
Media was collected from mouse P2 primary astrocytes that had been cultured for 24 hrs in the presence of cytokines with and without HDAC3 inhibitors and compared to media from astrocytes not treated with cytokines. The concentration of CCL5, a cytokine secreted by reactive astrocytes, was measured in each of the respective media conditions based on the direct adsorption of CCL5 to a pre-coated capture antibody on the ELISA assay plate. The ELISA sandwich assay was performed according to the manufacturer's instructions (DY478-05, R&D Systems). Relative CCL5 concentration were measured based on absorbance measured by a plate reader.

[5] = test system: acetylated histone 4 (AcH4); assay: Acetylated histone 4 in vivo (target engagement); parameters: species or system mouse; conditions: chronic daily 10 mg/kg, then two days of 5 mg/kg LPS
Protocol: Mice were perfused with PBS followed by 4% paraformaldehyde, after which brains were extracted and cryopreserved in 30% sucrose then frozen in OCT and sectioned. The stain slides were washed with PBS then incubated overnight with primary antibody against acetyl-Histone H4 (EMD Millipore, 06-866). After primary incubation slides were then washed and labeled with AlexaFluor secondary antibodies (ThermoFisher). Images were captured on a Hamamatsu Nanozoomer S60 Slide scanner with NDP 2.0 software. Image analysis was performed using Perkin Elmer Columbus automated software.

[6] = 10 mg/kg daily, lesion at 12 dpl

## Nc1cc(F)ccc1NC(=O)/C=C/c1cnn(C/C=C/c2ccccc2)c1 [RGFP966]
[1]; 10 mg/kg i.p. daily plus 5 mg/kg LPS, frontal cortex and corpus callosum, compared to vehicle plus LPS
  percentage of GFAP+ astrocytes expressing GBP2: lower percentage (about half)
[1]; chronic treatment prior to LPS challenge, frontal cortex, cerebellum, brainstem, and corpus callosum
  levels of GBP2+ reactive astrocytes: decreased levels
[2]; FIG. 3
  ability of reactive astrocytes to cross present antigen on MHC Class I: decrease
[2]; at either 2.5 or 5.0 μM
  inhibition of antigen cross-presentation by MHC Class I: completely inhibited
Spinal cord LPC lesion; 10 mg/kg daily from −1 dpl, at 12 dpl, compared to vehicle-treated LPC mice
  tissue repair: accelerated tissue repair
Spinal cord LPC lesion; [6]
  axons/mm^2: increased
  percentage of axons remyelinated: increased
  total axons in lesions: increased
  total remyelinated: increased
Other HDAC
  inhibition of other HDAC isozymes: no inhibition
[3]
  protection of retinal ganglion cells (RGCs) from neurodegeneration: protects
[4]
  RelA/P65 driven transcription (transcriptional activity): decreases
CCL5; 2.5 μM
  reduction of CCL5 secretion: about 70%
CCL5; 5.0 μM
  reduction of CCL5 secretion: more than 80%
CCL5; FIG. 4
  secretion of CCL5 by reactive astrocytes: significantly decrease
[5]
  levels of acetylated histone 4 (AcH4): increased

Source: patent publication US20250000847A1, “TREATMENT OF NEURODEGENERATIVE DISEASES WITH HDAC INHIBITORS” (CASE WESTERN RESERVE UNIVERSITY, priority 2021, published 2025)
